Experimental data: patent publication US20250215012A1, “IKZF2 DEGRADERS AND USES THEREOF” (REGENTS OF THE UNIVERSITY OF MICHIGAN, priority 2022, published 2025)

Molecular target: IKZF2 (Homo sapiens (Human), UniProt Q96SW2+Q9UKS7)
Assay: IKZF2 HiBiT Assay (Jurkat-IKZF2-HiBiT cell line)
Type: cell-based
Conditions: Jurkat-IKZF2-HiBiT cells, 24 hours; for DC50: read-out: HiBit assay degradation analysis DC50; for Dmax: read-out: HiBit assay degradation analysis Dmax
Procedure, shortened: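 IKZF2 degradation was assessed as HiBiT luminescence in Jurkat-IKZF2-HiBiT cells, using lytic detection after 24 h of compound treatment at 37 °C, 5% CO2.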

Chain of IKZF2 (Q9UKS7 whole entry): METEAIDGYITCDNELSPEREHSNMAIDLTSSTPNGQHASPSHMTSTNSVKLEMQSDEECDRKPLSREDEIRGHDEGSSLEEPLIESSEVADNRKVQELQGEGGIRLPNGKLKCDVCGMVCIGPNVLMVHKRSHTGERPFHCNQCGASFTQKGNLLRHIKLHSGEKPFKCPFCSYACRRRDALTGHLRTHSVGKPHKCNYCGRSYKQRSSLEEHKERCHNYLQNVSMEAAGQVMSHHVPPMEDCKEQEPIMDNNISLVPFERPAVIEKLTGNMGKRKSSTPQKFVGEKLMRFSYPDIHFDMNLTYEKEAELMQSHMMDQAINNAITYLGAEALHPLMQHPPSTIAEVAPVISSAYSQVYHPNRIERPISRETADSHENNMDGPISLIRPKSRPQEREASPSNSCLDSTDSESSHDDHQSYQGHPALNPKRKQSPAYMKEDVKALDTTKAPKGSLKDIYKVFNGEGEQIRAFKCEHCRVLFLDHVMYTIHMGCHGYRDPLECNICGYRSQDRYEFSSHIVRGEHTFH
Chain of IKZF2 (Q96SW2 whole entry): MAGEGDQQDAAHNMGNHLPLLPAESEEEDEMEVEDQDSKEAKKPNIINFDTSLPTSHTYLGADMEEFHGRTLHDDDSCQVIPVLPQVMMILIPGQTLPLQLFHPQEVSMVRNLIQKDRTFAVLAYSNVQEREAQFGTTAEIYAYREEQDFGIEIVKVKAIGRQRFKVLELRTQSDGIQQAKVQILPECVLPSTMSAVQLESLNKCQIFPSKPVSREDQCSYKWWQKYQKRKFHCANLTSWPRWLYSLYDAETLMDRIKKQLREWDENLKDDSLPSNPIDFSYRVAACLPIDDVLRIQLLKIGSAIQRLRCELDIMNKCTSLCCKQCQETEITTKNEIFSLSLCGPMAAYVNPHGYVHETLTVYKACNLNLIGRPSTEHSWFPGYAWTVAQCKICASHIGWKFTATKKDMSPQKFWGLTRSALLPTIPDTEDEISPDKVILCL
Chain of IKZF2 (Q16531 whole entry partner): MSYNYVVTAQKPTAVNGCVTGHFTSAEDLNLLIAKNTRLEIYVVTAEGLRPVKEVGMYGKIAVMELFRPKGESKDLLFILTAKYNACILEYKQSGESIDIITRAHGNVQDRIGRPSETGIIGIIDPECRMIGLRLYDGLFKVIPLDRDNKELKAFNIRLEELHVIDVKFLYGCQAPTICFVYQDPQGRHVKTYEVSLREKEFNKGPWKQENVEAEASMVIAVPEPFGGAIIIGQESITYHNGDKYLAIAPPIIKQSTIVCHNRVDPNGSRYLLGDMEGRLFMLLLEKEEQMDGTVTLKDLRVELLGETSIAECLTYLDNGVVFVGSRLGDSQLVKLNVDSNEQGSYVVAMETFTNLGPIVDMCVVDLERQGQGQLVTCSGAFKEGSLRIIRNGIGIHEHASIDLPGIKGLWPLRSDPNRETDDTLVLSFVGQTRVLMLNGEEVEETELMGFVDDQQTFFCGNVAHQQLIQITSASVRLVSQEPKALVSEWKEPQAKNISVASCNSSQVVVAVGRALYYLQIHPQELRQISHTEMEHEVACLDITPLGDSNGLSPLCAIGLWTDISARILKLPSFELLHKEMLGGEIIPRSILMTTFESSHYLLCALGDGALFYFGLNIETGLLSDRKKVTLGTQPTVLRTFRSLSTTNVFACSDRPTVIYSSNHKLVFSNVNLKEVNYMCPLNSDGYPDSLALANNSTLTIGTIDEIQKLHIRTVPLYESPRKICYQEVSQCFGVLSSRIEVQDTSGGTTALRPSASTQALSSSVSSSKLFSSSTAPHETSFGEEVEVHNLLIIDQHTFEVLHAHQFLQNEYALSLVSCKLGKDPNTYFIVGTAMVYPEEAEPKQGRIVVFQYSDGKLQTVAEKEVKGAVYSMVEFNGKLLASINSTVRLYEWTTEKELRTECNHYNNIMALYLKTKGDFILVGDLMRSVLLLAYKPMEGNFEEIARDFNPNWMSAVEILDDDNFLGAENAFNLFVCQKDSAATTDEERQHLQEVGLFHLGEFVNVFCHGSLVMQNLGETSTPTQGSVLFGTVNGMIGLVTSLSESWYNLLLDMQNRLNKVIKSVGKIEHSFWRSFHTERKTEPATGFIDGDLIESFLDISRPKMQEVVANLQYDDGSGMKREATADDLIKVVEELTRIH

Row | SMILES | DC50 | Dmax
1 | O=C1CCC(N2Cc3c(ccc4c3OCC43CCN(Cc4cc(F)cc5cc[nH]c45)CC3)C2=O)C(=O)N1 (centres unmarked) [Compound A110, 3-(1′-((5-fluoro-1H-indol-7-yl)methyl)-6-oxo-6,8-dihydro-2H,7H-spiro[furo[2,3-e]isoindole-3,4′-piperidin]-7-yl)piperidine-2,6-dione] | < 50 nM | > 80%
2 | Cn1cc(-c2ccc(CN3CCC4(CC3)COc3c4ccc4c3CN(C3CCC(=O)NC3=O)C4=O)s2)cn1 (centres unmarked) [Compound A190, 3-(1′-((5-(1-methyl-1H-pyrazol-4-yl)thiophen-2-yl)methyl)-6-oxo-6,8-dihydro-2H,7H-spiro[furo[2,3-e]isoindole-3,4′-piperidin]-7-yl)piperidine-2,6-dione] | > 500 nM | 40 to 60%
3 | O=C1CCC(N2Cc3c(ccc4c3OCCC43CCN(Cc4ccc(Cl)cc4F)CC3)C2=O)C(=O)N1 (centres unmarked) [Compound A10, 3-(1-(4-chloro-2-fluorobenzyl)-7′-oxo-2′,3′,7′,9′-tetrahydro-8′H-spiro[piperidine-4,4′-pyrano[2,3-e]isoindol]-8′-yl)piperidine-2,6-dione] | > 500 nM | < 40%
4 | Cn1cc(-c2ccc(CN3CCC4(CC3)COc3c4ccc4c3CN(C3CCC(=O)NC3=O)C4=O)cc2)cn1 (centres unmarked) [Compound A148, 3-(1′-(4-(1-methyl-1H-pyrazol-4-yl)benzyl)-6-oxo-6,8-dihydro-2H,7H-spiro[furo[2,3-e]isoindole-3,4′-piperidin]-7-yl)piperidine-2,6-dione] | < 50 nM | 60 to 80%
5 | O=C1CCC(N2Cc3c(ccc4c3OCC43CCN(Cc4cccc5cccnc45)CC3)C2=O)C(=O)N1 (centres unmarked) [Compound A41, 3-(6-oxo-1′-(quinolin-8-ylmethyl)-6,8-dihydro-2H,7H-spiro[furo[2,3-e]isoindole-3,4′-piperidin]-7-yl)piperidine-2,6-dione] | 50 to 200 nM | 60 to 80%
6 | O=C1CCC(N2Cc3c(ccc4c3OCC43CCN(Cc4cccc(C(=O)O)c4)CC3)C2=O)C(=O)N1 (centres unmarked) [Compound A99, 3-((7-(2,6-dioxopiperidin-3-yl)-6-oxo-7,8-dihydro-2H,6H-spiro[furo[2,3-e]isoindole-3,4′-piperidin]-1′-yl)methyl)benzoic acid] | > 500 nM | < 40%
7 | O=C1CCC(N2Cc3c(ccc4c3OCC43CCN(Cc4cnn(Cc5cccc(Cl)c5)c4)CC3)C2=O)C(=O)N1 (centres unmarked) [Compound A242, 3-(1′-((1-(3-chlorobenzyl)-1H-pyrazol-4-yl)methyl)-6-oxo-6,8-dihydro-2H,7H-spiro[furo[2,3-e]isoindole-3,4′-piperidin]-7-yl) piperidine-2,6-dione] | < 50 nM | 60 to 80%
8 | N#Cc1cccc(CN2CCC3(CC2)COc2c3ccc3c2CN(C2CCC(=O)NC2=O)C3=O)c1 (centres unmarked) [Compound A219, 3-((7-(2,6-dioxopiperidin-3-yl)-6-oxo-7,8-dihydro-2H,6H-spiro[furo[2,3-e]isoindole-3,4′-piperidin]-1′-yl)methyl)benzonitrile] | 200 to 500 nM | 40 to 60%
9 | O=C1CCC(N2Cc3c(ccc4c3OCC43CCN(Cc4ccccc4Cl)CC3)C2=O)C(=O)N1 (centres unmarked) [Compound A214, 3-(1′-(2-chlorobenzyl)-6-oxo-6,8-dihydro-2H,7H-spiro[furo[2,3-e]isoindole-3,4′-piperidin]-7-yl)piperidine-2,6-dione] | 200 to 500 nM | 40 to 60%
10 | Cn1cc2cccc(CN3CCC4(CC3)COc3c4ccc4c3CN(C3CCC(=O)NC3=O)C4=O)c2n1 (centres unmarked) [Compound A75, 3-(1′-((2-methyl-2H-indazol-7-yl)methyl)-6-oxo-6,8-dihydro-2H,7H-spiro[furo[2,3-e]isoindole-3,4′-piperidin]-7-yl)piperidine-2,6-dione] | 50 to 200 nM | 60 to 80%
11 | [2H]C([2H])([2H])n1ccc(-c2cccc(CN3CCC4(CC3)COc3c4ccc4c3CN([C@H]3CCC(=O)NC3=O)C4=O)c2)n1 [Compound A302, (S)-3-(1′-(3-(1-(methyl-d3)-1H-pyrazol-3-yl)benzyl)-6-oxo-6,8-dihydro-2H,7H-spiro[furo[2,3-e]isoindole-3,4′-piperidin]-7-yl)piperidine-2,6-dione] | < 50 nM | 60 to 80%
12 | O=C1CC[C@H](N2Cc3c(ccc4c3OCC43CCN(Cc4cnn(S(=O)(=O)c5ccccc5Cl)c4)CC3)C2=O)C(=O)N1 [Compound A349, (S)-3-(1′-((1-((2-chlorophenyl)sulfonyl)-1H-pyrazol-4-yl)methyl)-6-oxo-6,8-dihydro-2H,7H-spiro[furo[2,3-e]isoindole-3,4′-piperidin]-7-yl)piperidine-2,6-dione] | < 50 nM | 60 to 80%
13 | O=C1CCC(N2Cc3c(ccc4c3OCC43CCN(Cc4ccc5ccn(Cc6cccnc6)c5c4)CC3)C2=O)C(=O)N1 (centres unmarked) [Compound A154, 3-(6-oxo-1′-((1-(pyridin-3-ylmethyl)-1H-indol-6-yl)methyl)-6,8-dihydro-2H,7H-spiro[furo[2,3-e]isoindole-3,4′-piperidin]-7-yl)piperidine-2,6-dione] | 200 to 500 nM | 60 to 80%
14 | O=C1CCC(N2Cc3c(ccc4c3OCC43CCN(Cc4cnn(CC5COC5)c4)CC3)C2=O)C(=O)N1 (centres unmarked) [Compound A319, 3-(1′-((1-(oxetan-3-ylmethyl)-1H-pyrazol-4-yl)methyl)-6-oxo-6,8-dihydro-2H,7H-spiro[furo[2,3-e]isoindole-3,4′-piperidin]-7-yl)piperidine-2,6-dione] | > 500 nM | < 40%
15 | O=C1CCC(N2Cc3c(ccc4c3OCC43CCN(Cc4ccc(Cl)c5ccccc45)CC3)C2=O)C(=O)N1 (centres unmarked) [Compound A37, 3-(1′-((4-chloronaphthalen-1-yl)methyl)-6-oxo-6,8-dihydro-2H,7H-spiro[furo[2,3-e]isoindole-3,4′-piperidin]-7-yl)piperidine-2,6-dione] | > 500 nM | 40 to 60%
16 | O=C1CC[C@H](N2Cc3c(ccc4c3OCC43CCN(Cc4cccc(-c5cnn(C(F)(F)F)c5)c4)CC3)C2=O)C(=O)N1 [Compound A282, (S)-3-(6-oxo-1′-(3-(1-(trifluoromethyl)-1H-pyrazol-4-yl)benzyl)-6,8-dihydro-2H,7H-spiro[furo[2,3-e]isoindole-3,4′-piperidin]-7-yl)piperidine-2,6-dione] | < 50 nM | 60 to 80%
17 | O=C1CC[C@H](N2Cc3c(ccc4c3OCC43CCN(Cc4cnn(-c5ccc(C(F)(F)F)cc5)c4)CC3)C2=O)C(=O)N1 [Compound A360, (S)-3-(6-oxo-1′-((1-(4-(trifluoromethyl)phenyl)-1H-pyrazol-4-yl)methyl)-6,8-dihydro-2H,7H-spiro[furo[2,3-e]isoindole-3,4′-piperidin]-7-yl)piperidine-2,6-dione] | < 50 nM | 60 to 80%
18 | O=C1CC[C@H](N2Cc3c(ccc4c3OCC43CCN(Cc4cccc(-c5cnn(C(F)F)c5)c4)CC3)C2=O)C(=O)N1 [Compound A281, (S)-3-(1′-(3-(1-(difluoromethyl)-1H-pyrazol-4-yl)benzyl)-6-oxo-6,8-dihydro-2H,7H-spiro[furo[2,3-e]isoindole-3,4′-piperidin]-7-yl)piperidine-2,6-dione] | < 50 nM | > 80%
19 | O=C1CC[C@H](N2Cc3c(ccc4c3OCC43CCN(Cc4ccc5cn(C6COC6)nc5c4)CC3)C2=O)C(=O)N1 [Compound A285, (S)-3-(1′-((2-(oxetan-3-yl)-2H-indazol-6-yl)methyl)-6-oxo-6,8-dihydro-2H,7H-spiro[furo[2,3-e]isoindole-3,4′-piperidin]-7-yl)piperidine-2,6-dione] | < 50 nM | 60 to 80%
20 | O=C1CCC(N2Cc3c(ccc4c3OCC43CCN(Cc4ccc(F)c5[nH]ncc45)CC3)C2=O)C(=O)N1 (centres unmarked) [Compound A136, 3-(1′-((7-fluoro-1H-indazol-4-yl)methyl)-6-oxo-6,8-dihydro-2H,7H-spiro[furo[2,3-e]isoindole-3,4′-piperidin]-7-yl)piperidine-2,6-dione] | < 50 nM | 40 to 60%
21 | O=C1CCC(N2Cc3c(ccc4c3OCC43CCN(Cc4cccc(Br)c4)CC3)C2=O)C(=O)N1 (centres unmarked) [Compound A91, 3-(1′-(3-bromobenzyl)-6-oxo-6,8-dihydro-2H,7H-spiro[furo[2,3-e]isoindole-3,4′-piperidin]-7-yl)piperidine-2,6-dione] | < 50 nM | 60 to 80%
22 | O=C1CCC(N2Cc3c(ccc4c3OCC43CCN(Cc4cnn(Cc5ccc(F)cc5)c4)CC3)C2=O)C(=O)N1 (centres unmarked) [Compound A237, 3-(1′-((1-(4-fluorobenzyl)-1H-pyrazol-4-yl)methyl)-6-oxo-6,8-dihydro-2H,7H-spiro[furo[2,3-e]isoindole-3,4′-piperidin]-7-yl)piperidine-2,6-dione] | 50 to 200 nM | 60 to 80%
23 | O=C1CCC(N2Cc3c(ccc4c3OCC43CCN(Cc4cc(F)cc(F)c4)CC3)C2=O)C(=O)N1 (centres unmarked) [Compound A28, 3-(1′-(3,5-difluorobenzyl)-6-oxo-6,8-dihydro-2H,7H-spiro[furo[2,3-e]isoindole-3,4′-piperidin]-7-yl)piperidine-2,6-dione] | > 500 nM | 40 to 60%
24 | O=C1CCC(N2Cc3c(ccc4c3OCC43CCN(CC4CCN(c5ccccc5)C4)CC3)C2=O)C(=O)N1 (centres unmarked) [Compound A138, 3-(6-oxo-1′-((1-phenylpyrrolidin-3-yl)methyl)-6,8-dihydro-2H,7H-spiro[furo[2,3-e]isoindole-3,4′-piperidin]-7-yl)piperidine-2,6-dione] | > 500 nM | 40 to 60%
25 | CC(C)c1ccc(CN2CCC3(CC2)COc2c3ccc3c2CN(C2CCC(=O)NC2=O)C3=O)cc1 (centres unmarked) [Compound A191, 3-(1′-(4-isopropylbenzyl)-6-oxo-6,8-dihydro-2H,7H-spiro[furo[2,3-e]isoindole-3,4′-piperidin]-7-yl)piperidine-2,6-dione] | > 500 nM | < 40%
